Results taken from patent US20230356105A1, “TETRAAZADODECANE BASED CHELATING AGENTS FOR SEPARATION OF RARE EARTH ELEMENTS AND METHOD THEREFOR” (Ustav Organicke Chemie a Biochemie AV CR V.V.I., priority 2020, published 2023).
Values joined by “and” are separate entries in the source; they are usually repeats but may differ in a detail not shown here. Identical values can stand only once.

What was measured:
Type in all cases: physicochemical
[1] = Removal of additive from remaining solution after precipitation by ultrafiltration (Example 25); conditions: Ln chelates of L5
[2] = Separation of Nd/Pr/Tb/Dy mixture by repeated precipitation using L5 and α-HIBA (Example 24)
Method: The reaction mixture was prepared by pipetting the following aqueous stock solutions into a 20 mL glass vial: • 1. 476 μL 246 mM aqueous chelator L5 • 2. 606 μL 175.5 mM aqueous LnCl3 solution (from a stock solution containing a mixture of Ln =Nd, Pr, Tb, and Dy, in a ratio of 3.3:1:1:1, Nd:Pr:Tb:Dy) • 3. 41.6 μL 2560 mM aqueous α-HIBA pH=6.5 • 4. 4103 μL water • 5. 1733 μL 3.0 M MOPS pH=7
The total reaction volume was 7.0 mL. Three identical reaction mixtures were prepared. A PTFE-coated stir bar was added to each vial; the vials were capped and stirred on a magnetic stirrer at room temperature. After 18 hours, a 200 μL aliquot of the reaction mixture was taken from each vial. This was centrifuged in a 2 mL plastic Eppendorf centrifuge tube, and the supernatant was carefully pipetted from the sample and transferred to a new set of tubes. The precipitate was dissolved by addition of 200 μL 1 M HCl, and the absolute concentration of each of the four lanthanides (Nd, Pr, Tb, and Dy) in each sample of the supernatant and precipitate was determined by ICP-OES. The remaining reaction mixtures from each vial were individually centrifuged in 15 mL plastic centrifuge tubes to separate the precipitate from the supernatant. The supernatant was discarded. Each precipitate was dissolved by addition of 2 mL 1 M HCl and heating to 80° C. for 1 hour. After dissolution, the acidic solutions were transferred to clean 20 mL glass vials with one PTFE-coated magnetic stir bar each. To each solution was added, in order: 2037 μL water, 40.4 μL 2560 mM aqueous α-HIBA pH =6.5, 1723 μL 3 M aqueous MOPS pH=7, and 1000 μL 2 M NaOH. These solutions were capped and stirred on a magnetic stirrer at room temperature. After 18 hours, a 200 μL aliquot of the reaction mixture was again taken from each and treated for ICP-OES analysis as before. Once again, the remaining reaction mixtures from each vial were individually centrifuged in 15 mL plastic centrifuge tubes to separate the precipitate from the supernatant. The supernatant was discarded. Each precipitate was dissolved by addition of 1 mL 1M HCl and heating to 80° C. for 1 hour. After dissolution, the acidic solutions were transferred to clean 20 mL glass vials with one PTFE-coated magnetic stir bar each. To each solution was added, in order: 3376 μL water, 51.6 μL 2560 mM aqueous α-HIBA pH =6.5, 1672 μL 3 M aqueous MOPS pH=7, and 500 μL 2 M NaOH. These solutions were capped and stirred on a magnetic stirrer at room temperature. After 18 hours, a final 200 μL aliquot of the reaction mixture was again taken from each vial and treated for ICP-OES analysis as before.

[3] = Use of additives to improve separation of Nd/Dy mixture by precipitation with L5 (Example 18); conditions: no additive (0 mM); 11 mM L5
Method in brief: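 Mixtures held 5 mM NdCl3, 5 mM DyCl3 and 500 mM MOPS pH 7 with L5, plus additives at variable concentration adjusted to pH 7. Stirred 18 h in sealed cuvettes, then centrifuged; precipitate redissolved in 1 M HCl. Nd and Dy measured in supernatant and precipitate by ICP-OES.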

[4] = series A (first precipitation, 18 hours), individual samples A1-A3
[5] = series B (repeated precipitation), individual samples B1-B3
[6] = series C (repeated precipitation), individual samples C1-C3

In the case of `O=C(O)CN1CCN(CC(=O)O)CCN(Cc2cccc3ccccc23)CCN(CC(=O)O)CC1` [L5, 2,2′,2″-(10-(naphthalene-1-ylmethyl)-1,4,7,10-tetraazacyklododekane-1,4,7-triyl)triacetic acid], the “% of initial [chelate] in filtrate” value ([1]; additive acetate 76 mM) is reported as 0.8%, the “% of initial [chelate] in filtrate” value ([1]; additive benzoic acid 76 mM) is reported as 0.3% and the “% of initial [chelate] in filtrate” value ([1]; additive α-HIBA 30.4 mM) is reported as 0.4%. For the same compound, the “avg composition of precipitate, Dy” value ([2]; series A) was 6.3%, the “avg composition of precipitate, Nd” value ([2]; series A) was 67.2% and the “avg composition of precipitate, Pr” value ([2]; series A) was 18.2%. For the same compound, the “avg composition of precipitate, Tb” value ([2]; series A) was 8.2%, the “avg composition of supernatant, Dy” value ([2]; series A) was 43.8% and the “avg composition of supernatant, Nd” value ([2]; series A) was 21.4%. For the same compound, the “avg composition of supernatant, Pr” value ([2]; series A) was 3.2%, the “avg composition of supernatant, Tb” value ([2]; series A) was 31.6% and the “precipitate concentration Dy” value [2, 4] was 0.81 mM and 0.82 mM (2×). For the same compound, the “precipitate concentration Nd” value [2, 4] was 8.82 mM and 8.69 mM and 8.55 mM, the “precipitate concentration Pr” value [2, 4] was 2.39 mM and 2.35 mM and 2.32 mM and the “precipitate concentration Tb” value [2, 4] was 1.05 mM and 1.07 mM and 1.06 mM. For the same compound, the “supernatant concentration Dy” value [2, 4] was 1.69 mM and 1.65 mM and 1.68 mM, the “supernatant concentration Nd” value [2, 4] was 0.85 mM and 0.90 mM and 0.70 mM and the “supernatant concentration Pr” value [2, 4] was 0.12 mM and 0.15 mM and 0.09 mM. For the same compound, the “supernatant concentration Tb” value [2, 4] was 1.23 mM and 1.19 mM and 1.20 mM, the “precipitate concentration Dy, avg” value ([2]; series A avg) was 0.81 mM and the “precipitate concentration Nd, avg” value ([2]; series A avg) was 8.68 mM. The “precipitate concentration Pr, avg” value ([2]; series A avg) was 2.35 mM, the “precipitate concentration Tb, avg” value ([2]; series A avg) was 1.06 mM and the “supernatant concentration Dy, avg” value ([2]; series A avg) was 1.67 mM. The “supernatant concentration Nd, avg” value ([2]; series A avg) was 0.82 mM, the “supernatant concentration Pr, avg” value ([2]; series A avg) was 0.12 mM and the “supernatant concentration Tb, avg” value ([2]; series A avg) was 1.21 mM. For the same compound, the “avg composition of precipitate, Dy” value ([2]; series B) was 2.0%, the “avg composition of precipitate, Nd” value ([2]; series B) was 73.4% and the “avg composition of precipitate, Pr” value ([2]; series B) was 20.6%. For the same compound, the “avg composition of precipitate, Tb” value ([2]; series B) was 4.0%, the “avg composition of supernatant, Dy” value ([2]; series B) was 28.7% and the “avg composition of supernatant, Nd” value ([2]; series B) was 34.0%. For the same compound, the “avg composition of supernatant, Pr” value ([2]; series B) was 3.1%, the “avg composition of supernatant, Tb” value ([2]; series B) was 34.1% and the “precipitate concentration Dy” value [2, 5] was 0.20 mM and 0.21 mM and 0.22 mM. The “precipitate concentration Nd” value [2, 5] was 7.54 mM and 7.82 mM and 8.02 mM, the “precipitate concentration Pr” value [2, 5] was 2.11 mM and 2.20 mM and 2.24 mM and the “precipitate concentration Tb” value [2, 5] was 0.41 mM and 0.42 mM and 0.45 mM. The “supernatant concentration Dy” value [2, 5] was 0.50 mM and 0.52 mM and 0.54 mM, the “supernatant concentration Nd” value [2, 5] was 0.65 mM and 0.60 mM and 0.59 mM and the “supernatant concentration Pr” value [2, 5] was 0.06 mM and 0.05 mM (2×). For the same compound, the “supernatant concentration Tb” value [2, 5] was 0.60 mM and 0.61 mM and 0.64 mM, the “precipitate concentration Dy, avg” value ([2]; series B avg) was 0.21 mM and the “precipitate concentration Nd, avg” value ([2]; series B avg) was 7.80 mM. The “precipitate concentration Pr, avg” value ([2]; series B avg) was 2.18 mM, the “precipitate concentration Tb, avg” value ([2]; series B avg) was 0.42 mM and the “supernatant concentration Dy, avg” value ([2]; series B avg) was 0.52 mM. For the same compound, the “supernatant concentration Nd, avg” value ([2]; series B avg) was 0.61 mM, the “supernatant concentration Pr, avg” value ([2]; series B avg) was 0.06 mM and the “supernatant concentration Tb, avg” value ([2]; series B avg) was 0.62 mM. For the same compound, the “avg composition of precipitate, Dy” value ([2]; series C) was 0.5%, the “avg composition of precipitate, Nd” value ([2]; series C) was 75.6% and the “avg composition of precipitate, Pr” value ([2]; series C) was 22.1%. For the same compound, the “avg composition of precipitate, Tb” value ([2]; series C) was 1.8%, the “avg composition of supernatant, Dy” value ([2]; series C) was 10.4% and the “avg composition of supernatant, Nd” value ([2]; series C) was 61.4%. The “avg composition of supernatant, Pr” value ([2]; series C) was 6.5%, the “avg composition of supernatant, Tb” value ([2]; series C) was 21.6% and the “precipitate concentration Dy” value [2, 6] was 0.03 mM and 0.04 mM (2×). The “precipitate concentration Nd” value [2, 6] was 6.34 mM and 6.40 mM and 6.17 mM, the “precipitate concentration Pr” value [2, 6] was 1.85 mM and 1.87 mM and 1.80 mM and the “precipitate concentration Tb” value [2, 6] was 0.15 mM (2×) and 0.16 mM. The “supernatant concentration Dy” value [2, 6] was 0.12 mM (2×) and 0.13 mM, the “supernatant concentration Nd” value [2, 6] was 0.67 mM and 0.68 mM and 0.83 mM and the “supernatant concentration Pr” value [2, 6] was 0.07 mM (2×) and 0.10 mM. For the same compound, the “supernatant concentration Tb” value [2, 6] was 0.24 mM and 0.25 mM and 0.27 mM, the “precipitate concentration Dy, avg” value ([2]; series C avg) was 0.04 mM and the “precipitate concentration Nd, avg” value ([2]; series C avg) was 6.30 mM. The “precipitate concentration Pr, avg” value ([2]; series C avg) was 1.84 mM, the “precipitate concentration Tb, avg” value ([2]; series C avg) was 0.15 mM and the “supernatant concentration Dy, avg” value ([2]; series C avg) was 0.12 mM. The “supernatant concentration Nd, avg” value ([2]; series C avg) was 0.73 mM, the “supernatant concentration Pr, avg” value ([2]; series C avg) was 0.08 mM and the “supernatant concentration Tb, avg” value ([2]; series C avg) was 0.26 mM. For the same compound, the “Precipitate concentration [mM] Dy” value [3] was 4.60 mM, the “Precipitate concentration [mM] Nd” value [3] was 4.98 mM and the “Supernatant concentration [mM] Dy” value [3] was 0.37 mM. For the same compound, the “Supernatant concentration [mM] Nd” value [3] was 0.07 mM.
